Assay results reported in article PMC10424187, “Structure-Guided Design and Synthesis of a Pyridazinone Series of Trypanosoma cruzi Proteasome Inhibitors” (Journal of Medicinal Chemistry, 2023).
Values after ≈ are worked out from the molar mass of the structure shown. Values joined by “and” are separate entries in the source; they are usually repeats but may differ in a detail not shown here. Identical values can stand only once.

Key:
T. cruzi [1] = assay: T. cruzi in vitro washout assay; format: cell-based, Trypanosoma cruzi; settings: 8 days of treatment, 50-fold EC50
Description: T. cruzi in vitro washout assay
This assay was run as previously reported:
Marco M.; Miles T.J.; Naylor C.; Osuna-Cabello M.; Paterson C.; Read K.D.; Pinto E.G.; Riley
J.; Scullion P.; Shishikura Y.; Simeons F.; Stojanovski L.; Svensen N.; Thomas J.; Wyatt P.G.;
disubstituted piperazines for the treatment of Chagas disease. […]

[2] = Mouse microsomal intrinsic clearance; format: in vitro ADME; settings: mouse liver microsomes, scaling 52.5 mg microsomal protein/g liver
Method: Mouse microsomal intrinsic clearance.
This assay was conducted as previously described:
J.; Reid, I. H.; Hill, A. P.;
were prepared by adding a volume (5 µL) of the 10 mM solution to a volume (195 µL) of […]

[3] = Kinetic solubility by chemiluminescent nitrogen detection (CLND); format: physicochemical
[4] = In vivo blood exposure / pharmacokinetics in mice; design: species or system mouse
Method: Blood samples (10 μL) where taken
and 24 hours post dose samples for I.V. leg only) and mixed with two volumes of deionized water (20 μL). After suitable sample preparation, the concentration of test compound in the whole blood from treated mice was determined by UPLC-MS/MS using a Quattro Premier XE (Waters, USA). Pharmacokinetic parameters were derived from the mean blood concentration time curve using PK solutions software v 2.0 (Summit Research Services, USA).

Brain-blood ratio = format: in vivo; settings: mouse
Brain tissue binding = format: in vitro ADME; settings: read-out: brain tissue free fraction
T. cruzi [5] = assay: Chronic mouse efficacy model of Chagas disease; format: in vivo, Balb/c mice; settings: 5 days at 50 mg/kg bid
Method: All regulated procedures on living animals were carried out under the authority of a project license issued by the Home Office under the Animals (Scientific Procedures) Act 1986, as amended in 2012 (and in compliance with EU Directive EU/2010/63). Infected animals had access to food and water ad libitum and were housed under a 12-hour light/dark photoperiod.
Animals used in these experiments were female NMRI and Balb/c mice (Harlan, UK). […]
In vivo Mouse Efficacy Studies.
The T. cruzi chronic efficacy study was run in Balb/c mice as previously described:
M.D. Lewis, A. Fortes Francisco, M.C. Taylor, J.M. Kelly, A new experimental model for assessing drug efficacy against Trypanosoma cruzi infection based on highly sensitive in vivo imaging, J. Biomol. Screen 20 (1) (2015) 36–43

[6] = tested on: intracellular T. cruzi X10/7 A1 amastigotes
P-gp (MDR1) = assay: in vitro; settings: dog, MDCK-MDR1
Method: MDR1-MDCK Permeability assay
Bi-directional transport was assessed in the presence and absence of Pgp inhibitor GF120918
(Elacridar). MDCK-MDR1 cells (Netherlands Cancer Institute) were maintained in culture
(DMEM, Gibco Cat: 61965-026 supplemented with 1% penicillin/streptomycin, 10% FCS)
until required. For experimentation, cells were seeded onto individual transwell ’Thincerts’
(Greiner, Cat 662610) at a density of 35,000 cells/well. Cells were grown at 37 °C, 5% CO2 for
3 days. On day 4, media was replaced with fresh media and incubated for 1 hour. Prior to
experimentation, cells were incubated with Dulbeccos PBS (Gibco, 14287-080) with/without
Pgp inhibitor, 2 µM GF120918, to ensure inactivation of the Pgp transporter. Cells were then
dosed apically and basolaterally (1 µM test compound, 10 µM Lucifer Yellow (1% DMSO)
with/without 2 µM GF120918) for 1 hour. 100 mL of solution from donor and receiver wells
was removed to a 96 well deepwell plate alongside 100 mL of dosing solution. 150 µL of
acetonitrile containing internal standard (e.g., 100 ng/mL Sulfadimethoxine) was then added
to all samples prior to analysis by LC-MS/MS. Amprenavir (positive control) were run […]
a Lucifer Yellow standard curve for fluorescence determination of Lucifer Yellow
concentrations. Papp (apparent permeability) values were calculated for each compound for […]
efflux ratios (ER) determined using the following equations: […]

FaSSIF solubility = settings: fasted state simulated intestinal fluid
Method: undissolved material using a proprietary filter (Millipore Multiscreen HTS filter, 96-well
format). Samples were then drawn through the filter using vacuum. The filtrate from the above
was analysed for dissolved drug compound using a truncated UHPLC methodology. A Shimadzu Nexera X2 UHPLC system was used, with a reversed-phase column and a simple
formic acid gradient elution. The UHPLC parameters are shown below:
Mobile phase component A HPLC water plus 0.1% formic acid
Mobile phase component B HPLC acetonitrile plus 0.1% formic acid
Re-equilibration time: 0.6 min
Autosampler temperature: 25°C
Column: Hypersil Gold, C18 1.9 µm, 50 x 2.1 mm
A calibration solution was prepared in the following way: The same 10 mM solution used to
was then diluted with 50:50 acetonitrile:water to give a 50 µM solution. Aliquots (0.2, 2.0 and
5.0 µL) of this 50 µM solution were then injected onto the UHPLC system and the areas of the
resultant peaks integrated to produce a calibration line. Aliquots of the test sample filtrate (0.4
and 5.0 µL) were then injected onto the UHPLC system and the resultant peak areas for any
peaks corresponding to the test compound determined and quantified using the calibration line
(the injection volume that gave a peak area closest to the calibrated range was used for

Human 20S proteasome = Human 20S proteasome (Homo sapiens, UniProt P28074+P49721); assay: human proteasome assay (chymotrypsin-like activity, Suc-LLVY-Rho-110-DPro)
Method: T. cruzi and human proteasome assays
(§1) The T. cruzi proteasome was partially purified as described in the above reference and Human
(§2) 20S proteasome was purchased from Boston Biochem (now R&D Systems, catalogue number
(§3) a Tecan Fluent to titrate over 11 points in Labcyte Echo-compatible Greiner Bio-One 384 well
(§4) polypropylene microplates. Subsequently, 100 nl of test compound titrations were transferred
(§5) to black Greiner Bio-One low volume 384 well microplates using a Labcyte Echo acoustic
(§6) 50 mM HEPES pH 7.5, 150 mM sodium chloride, 5% Glycerol, 1 mM dithiothreitol, 1 mM
(§7) CHAPS in deionised, filtered water (all chemicals purchased from Sigma Aldrich). Human 20S
(§8) These enzyme solutions were prepared immediately prior to assay initiation and stored at 4 °C
(§9) To monitor the Chymotrypsin-like activity of the T. cruzi and Human 20S proteasome proteins
(§10) a self-quenched, Rhodamine 110-labelled peptide with the sequence Suc-LLVY-Rho-110-
(§11) DPro was used (prepared by Cambridge Research Biochemicals. Suc is succinyl, while DPro
(§12) refers to ᴅ-proline). The peptide was initially prepared from solid as a 10 mM solution in 100%
(§13) DMSO and stored at -20 °C. Prior to use in the assay, an aliquot was thawed at room
(§14) to twofold Km. For use with the Human 20S proteasome, the Suc-LLVY-Rho-110-DPro
(§15) peptide was diluted in assay buffer to a concentration equivalent to twofold Km, which for this
(§16) enzyme was 2 μM. The peptide solutions were protected from light and stored at 4 °C before
(§17) A Multidrop Micro (Thermo Fisher), using a low volume dispense cassette, was used to add
(§18) the assay solutions to the test compounds in the low volume 384-well microplates. Prior to
(§19) addition of proteasome solution, 5 μl of assay buffer was added to one column (containing 100
(§20) nl, 100% DMSO) to act as no enzyme control to mimic full inhibition. Subsequently, 5 μl of
(§21) proteasome solution (either T. cruzi or Human 20S) was added to all wells on the test
(§22) microplate apart from the column containing 5 μl assay buffer. The microplate was then spun
(§23) using a suitable bench top centrifuge for 1 minute at 1000 rpm, before incubation at room
(§24) Following the initial incubation, 5 μl of substrate solution was then added to all wells on the
(§25) test microplate using a Multidrop Micro equipped with a discrete low volume dispense cassette.
(§26) The test microplates were then spun for 10 seconds at 1000 rpm before being rapidly moved to
(§27) a multi-mode microplate reader, capable of monitoring fluorescence intensity. The microplate
(§28) reader used for these studies was a Tecan M1000 Pro, equipped with quad monochromators.
(§29) 530 ± 5 nm. A series of fluorescence intensity measurements were taken every 30 seconds for
(§30) Subsequently, the fluorescence intensity measurements (relative fluorescence units, RFU) were
(§31) fit to a simple linear regression model (y = A + Bx, where y refers to the fluorescence intensity
(§32) and x refers to the time in seconds) to determine the initial rate of reaction. The initial rate for
(§33) every compound concentration tested was then fit a 4-parameter logistic model: y = (A + (B -
(§34) A)) / (1 + (x / C)D), where y refers to the assay response, x refers to the inhibitor concentration,
(§35) A and B are the range values (minimum and maximum, respectively), C is the IC50 value and
(§36) D is the slope. Potency values were then reported as pIC50, which is the negative log of the
(§37) IC50 (on a molar scale). Data analysis was automated and carried out using the ActivityBase

T. cruzi proteasome = T. cruzi proteasome (Trypanosoma cruzi, UniProt V5BU39+V5C017); assay: T. cruzi proteasome assay (chymotrypsin-like activity, Suc-LLVY-Rho-110-DPro)
Sequence of T. cruzi proteasome (V5BU39 entry or part of it): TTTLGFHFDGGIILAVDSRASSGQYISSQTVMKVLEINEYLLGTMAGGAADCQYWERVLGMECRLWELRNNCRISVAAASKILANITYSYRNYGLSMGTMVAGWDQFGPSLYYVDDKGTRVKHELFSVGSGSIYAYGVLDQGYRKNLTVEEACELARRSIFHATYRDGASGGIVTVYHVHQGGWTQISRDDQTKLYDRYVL
Sequence of T. cruzi proteasome (V5C017 entry or part of it): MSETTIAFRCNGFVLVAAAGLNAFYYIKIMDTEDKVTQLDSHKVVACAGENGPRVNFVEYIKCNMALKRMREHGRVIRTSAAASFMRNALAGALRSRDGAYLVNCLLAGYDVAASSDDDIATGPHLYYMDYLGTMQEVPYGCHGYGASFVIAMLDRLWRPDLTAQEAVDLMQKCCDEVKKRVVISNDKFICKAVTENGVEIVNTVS
Method: T. cruzi and human proteasome assays
as §1, §2, §3, §4, §5, §6, §7, §8, §9, §10, §11, §12, §13, §14, §15, §16, §17, §18, §19, §20, §21, §22, §23, §24, §25, §26, §27, §28, §29, §30, §31, §32, §33, §34, §35, §36, §37

O=C(Nc1ccc(F)c(-c2cn3nc(N4CCOCC4)cnc3n2)c1)N1CCCC1 [Compound 4]
parasites relapsing on day (T. cruzi [1]): 34 days
Mouse CLi [2]: <0.5 mL/min/g
aqueous solubility [3]: 59 µM (≈ 24.3 µg/mL)
predicted brain exposure relative to T. cruzi EC99 ([4]; from blood exposure in chronic efficacy model, brain-blood ratio and brain free fraction): well below T. cruzi EC99
time blood exposure above T. cruzi EC99 ([4]; mouse VL efficacy study, 50 mg/kg, also when corrected for plasma protein binding): > 8 h
Kp (Brain-blood ratio): 0.07
fraction unbound (Brain tissue binding): 0.043
effect on parasite levels (T. cruzi [5]): no visible effect on parasite levels
EC50 [6]: 100 nM and 126 nM and 63.1 nM
Emax [6]: 95% and 90% and 93% and 98% and 99% and 96% and 92% and 100%
efflux ratio at 1 h, 1 µM (P-gp (MDR1)): 22
FaSSIF solubility (FaSSIF solubility): 32 µM
IC50 (Human 20S proteasome; Hs Prot pIC50, individual replicate): 25100 nM and 79400 nM
Hs Prot Hill Slope (Human 20S proteasome; individual replicate): 1.7 and 0.9 and 1.3
Hs Prot Max Response (%) (Human 20S proteasome; individual replicate): 35% and 21% and 42% and 24% and 10% and 50% and 28% and 48% and 38% and 29% and 47% and 41% and 54% and 44% and 52% and 49% and 40%
Hs Prot pIC50 (Human 20S proteasome; individual replicate): < 4
Hs Prot pIC50 (Human 20S proteasome; mean of at least three independent replicates): <4
IC50 (T. cruzi proteasome; Tc Prot pIC50, individual replicate): < 1.58 nM and 3.98 nM and 7.94 nM and 1.58 nM and 2.51 nM and 12.6 nM and 5.01 nM and 10 nM
Tc Prot Hill Slope (T. cruzi proteasome; individual replicate): 1.0 and 0.8 and 0.7 and 0.9 and 0.75 and 1.1 and 0.95
Tc Prot Max Response (%) (T. cruzi proteasome; individual replicate): 89% and 88% and 85% and 90% and 87%
Emax (T. cruzi proteasome; read-out: Tc Prot Max Response (%), individual replicate): 91%
